Data as given in paper PMC5656594 (Scientific Reports, 2017).

Tests used:
[1] = molecular target: T1, IN^PFV-viral DNA interaction (Human spumaretrovirus, UniProt P14350); assay: IN-viral DNA interaction by steady-state fluorescence anisotropy of Fl-DNA with increasing drug concentrations; assay type: binding, prototype foamy virus (PFV); conditions: 400 nM IN^PFV, 4 nM Fl-PFV^CAAT, 10 mM Mg2+, up to 20 µM drug; means INSTI did not prevent IN-DNA interactions
T1 construct: The full-length wt IN^PFV, the three single mutants of the catalytic triad; His; made in house; host or cells: E. coli BL21-CodonPlus (DE3)-RIPL
Protocol: Their incapability to prevent or disrupt IN-viral DNA complexes was consistently observed over the whole concentration range, regardless of the INSTI tested (Supplementary Fig. S7).
IN^PFV binding to DNA was measured by fluorescence anisotropy on a Beacon Instrument (Panvera, Madison, WI, USA) as previously described[25],[51], using a double-stranded 21-mer Fl-labeled DNA mimicking the PFV U5 LTR end also referred to as DNA#1 in Table 1 (labeled at the 5′-end of the reactive strand). IN binding to Fl-PFV^CAAT (or Fl-DNA#1) was compared to the binding to other DNA sequences (Fl-DNA#8 #9 #13). DNA annealing was obtained by mixing equimolar amounts of complementary strands in buffer A, heating to 85 °C for 5 min and slow cooling to 25 °C. DNA-binding experiments were performed at 25 °C in buffer A.
Figure S7. Differential effect of INSTI and INBI compounds on the INPFV-viral DNA interaction.
The formation of IN-DNA complexes was measured by steady-state fluorescence anisotropy using 400 nM INPFV and 4 nM Fl-PFVCAAT (also named Fl-DNA#1) in the presence of 10 mM Mg2+ and […]
In each plot, the starting r value (≈ 0.20) corresponds to the typical value found at saturating concentrations of IN (see Fig. S6).
The INBI compound FZ41, a member of the styrylquinoline family of inhibitors, was used as a control […]
show mean ± SD values from two independent experiments. […]

S217H IN^PFV mutant = conditions: S217H versus wt; cited from earlier work
IN alone (IN^PFV) = molecular target: T2, IN alone (IN^PFV) (Human spumaretrovirus, UniProt P14350); assay: DTG fluorescence enhancement in the presence of IN alone; assay type: binding, prototype foamy virus (PFV); conditions: 1 mM Mg2+
T2 construct: The full-length wt IN^PFV, the three single mutants of the catalytic triad; His; made in house; host or cells: E. coli BL21-CodonPlus (DE3)-RIPL
Protocol: (§1) The three other conditions (i→iii) led to superimposable spectra. To note, the presence of IN/DNA complexes accounts for light scattering on the blue side of the spectrum.
(§2) All experiments were performed in the presence of 1 mM Mg^2+ (see Supplementary Fig. S4 for [Mg^2+] = 10 mM). λex = 345 nm and PMT = 980 V (Δλex = Δλem = 5 nm). […] Contributions of Raman and Rayleigh scattering were eliminated in the inset spectrum: (viii) = (iv)–(vii) where (vii) represents the proper spectrum of Mg^2+-DTG in the context of the binary IN-DNA complex. […] [Mg^2+] = 1 mM. Inset: fluorescence intensity (375–385 nm) as a function of (IN + DNA). The arrows indicate the intensity level after addition of 500 mM NaCl. Emission spectra are representative of 3 independent experiments for each condition of (IN + DNA). […] (E) Measurement of the binary IN-DNA complex formation. The formation of binary complexes was performed by monitoring the fluorescence anisotropy (r) of DNA (Fl-PFV^CAAT) under similar experimental conditions of the DTG-binding assay (panels C-D). Top, varying stoichiometric concentrations of IN and DNA were mixed and the r parameter was monitored. […]
(§3) Fluorescence excitation and emission spectra of INSTIs were recorded on a Eclipse (Varian) spectrofluorimeter equipped with two polarizers for anisotropy measurements and a thermostated cell holder, using 80 µl solutions placed in micro cells (Hellma). […]

G187R IN^PFV-DNA complex = molecular target: T3, G187R IN^PFV-DNA complex (Human spumaretrovirus, UniProt P14350, G938R/G968S/S969G); assay: Fluorescence enhancement DTG-binding assay, G187R mutant; set-up: species or system prototype foamy virus (PFV); conditions: DTG 0.3 μM, 1 mM Mg2+
T3 construct: The pET-IN-PFV plasmid containing the full-length IN gene was used for mutagenesis; His; made in house; host or cells: E. coli BL21-CodonPlus (DE3)-RIPL
Protocol: The fluorescence intensity was monitored as a function of (IN + DNA) and plotted as a function of the binary IN-DNA complex concentration (measured as explained in Fig. 2E legend). […] The graphs in panels A-B show representative data of three independent experiments.
Fluorescence excitation and emission spectra of INSTIs were recorded on a Eclipse (Varian) spectrofluorimeter equipped with two polarizers for anisotropy measurements and a thermostated cell holder, using 80 µl solutions placed in micro cells (Hellma). Drug, IN and DNA concentrations, excitation/emission slit settings as well as the photomultiplier tube (PMT) voltage are specified in figure legends. The intensity value was corrected from the inner filter effect. The steady-state fluorescence anisotropy was calculated using: r = (IVV–G x IVH)/(IVV + 2GxIVH) where IVV and IVH correspond to vertical and horizontal components, respectively, when the sample is excited with vertically polarized light. G represents the correction factor for the difference in the monochromator transmission between // and ⊥ polarized components: G = IHV/IHH. All experiments were performed at 25 °C in buffer A: 20 mM Tris pH 7.2, 50 mM NaCl, 1 mM DTT and 10% (v/v) DMSO.

E221A IN^PFV-DNA complex = molecular target: T4, E221A IN^PFV-DNA complex (Human spumaretrovirus, UniProt P14350, E972A/G968S/S969G); assay: Fluorescence enhancement DTG-binding assay, E221A catalytic mutant; set-up: species or system prototype foamy virus (PFV); conditions: 1 mM Mg2+
T4 construct: The pET-IN-PFV plasmid containing the full-length IN gene was used for mutagenesis; His; made in house; host or cells: E. coli BL21-CodonPlus (DE3)-RIPL
Protocol: The fluorescence intensity was monitored as a function of (IN + DNA) and plotted as a function of the binary IN-DNA complex concentration (measured as explained in Fig. 2E legend). […] (B) The percentage of ternary complexes was calculated using DTG fluorescence enhancement. […] The graphs in panels A-B show representative data of three independent experiments. […] "DTG" is taken from the y-axis title of the same panel.
To note, Mg^2+ is dispensable for the overall DNA-binding step of IN[32],[43]–[45] and thus, the loss of Mg^2+ chelation is not contradictory with results showing that catalytic mutants bind equally well to DNA and in a similar manner than wt IN (Supplementary Fig. S6). However, G187R cannot be considered as a catalytic mutant since it sustains a significant ST activity although weak (≈10% of the wt activity; Fig. 6).
Fluorescence excitation and emission spectra of INSTIs were recorded on a Eclipse (Varian) spectrofluorimeter equipped with two polarizers for anisotropy measurements and a thermostated cell holder, using 80 µl solutions placed in micro cells (Hellma). […] The steady-state fluorescence anisotropy was calculated using: r = (IVV–G x IVH)/(IVV + 2GxIVH) where IVV and IVH correspond to vertical and horizontal components, respectively, when the sample is excited with vertically polarized light. […]

DNA alone (PFV^CAAT) = assay: DTG fluorescence enhancement in the presence of DNA alone; assay type: binding, prototype foamy virus (PFV); conditions: 1 mM Mg2+
Protocol: as §1, §2, §3

C[C@@H]1CCO[C@H]2Cn3cc(C(=O)NCc4ccc(F)cc4F)c(=O)c(O)c3C(=O)N12 [DTG, dolutegravir]
r value of Fl-DNA (IN-DNA complex) on increasing INSTI concentration [1]: remained constant | decrease in DTG susceptibility (S217H IN^PFV mutant): 2–3 fold | DTG binding to IN alone (IN alone (IN^PFV)): no DTG binding | DTG binding to G187R (G187R IN^PFV-DNA complex): No binding | DTG binding to E221A catalytic mutant (E221A IN^PFV-DNA complex): loss of DTG-binding | DTG binding to DNA alone (DNA alone (PFV^CAAT)): no DTG binding
